# Source: ChEMBL document CHEMBL4052727, “Structure-activity relationship studies on thiaplidiaquinones A and B as novel inhibitors of Plasmodium falciparum and farnesyltransferase” (Bioorg Med Chem, 2017)
# The source made the active and inactive calls. The calls are words filed in the database; no cut-off is given here.
# What was measured:
# [1] = Inhibition of Trypanosoma brucei recombinant farnesyltransferase using dansyl peptide containing GCAIM as substrate in presence of farnesyl pyrophosphate after 15 mins by fluorescence assay
# [2] = tested on: Staphylococcus intermedius; experiment: Antibacterial activity against Staphylococcus intermedius isolate 1051997 after 24 hrs by broth microdilution method; type: functional; conditions: isolate 1051997, 24 h
# Escherichia coli = experiment: Antibacterial activity against Escherichia coli ATCC 25922 after 24 hrs by broth microdilution method; type: functional
# Staphylococcus aureus = experiment: Antibacterial activity against Staphylococcus aureus ATCC 25923 after 24 hrs by broth microdilution method; type: functional; conditions: ATCC 25923, 24 h
# Pseudomonas aeruginosa = experiment: Antibacterial activity against Pseudomonas aeruginosa ATCC 27853 after 24 hrs by broth microdilution method; type: functional
# L6 = experiment: Cytotoxicity against rat L6 cells after 72 hrs by Alamar blue assay; type: cell-based; conditions: L6, 72 h
# Plasmodium falciparum [3] = experiment: (§1) Antiplasmodial activity against chloroquine-sensitive IEF stage of Plasmodium falciparum NF54 infected in human RBC assessed as reduction in [3H]hypoxanthine incorporation preincubated for 48 hrs followed by [3H]hypoxanthine addition measured after 24 hrs by liquid scintillation counting method; type: functional
# [4] = Inhibition of recombinant human farnesyltransferase using dansyl-GCVLS as substrate in presence of farnesyl pyrophosphate after 15 mins by fluorescence assay
# Plasmodium falciparum [5] = experiment: as §1, with “chloroquine-resistant erythrocyte” for “chloroquine-sensitive IEF”, “FcM29-Cameroon” for “NF54”; type: functional
# [6] = Selectivity index, ratio of IC50 for rat L6 cells to IC50 for chloroquine-sensitive IEF stage of Plasmodium falciparum NF54 infected in human RBC; type: toxicity; conditions: read-out: Ratio IC50
IC50 [1],MIC [2],MIC (Staphylococcus aureus),IC50 (Plasmodium falciparum [3]),IC50 [4],SMILES,Activity (Escherichia coli),Activity (Pseudomonas aeruginosa),IC50 (L6; read-out: IC50),IC50 (L6),IC50 (Plasmodium falciparum [5]),selectivity ratio [6]
> 22.3 µM,50 µM,25 µM,20.4 µM,> 22.3 µM,COC1=CC(=O)C2=C(C1=O)c1cc(O)ccc1OC2/C=C(\C)CC/C=C(\C)CCC=C(C)C (stereo not drawn),inactive,inactive,34.3 µM,,,
2.3 µM,> 200 µM,> 200 µM,0.29 µM,3.1 µM,CC(C)=CCc1cc2c(cc1O)C1=C(C(=O)C3=C(C1=O)S(=O)(=O)CCN3)C(C=C(C)C)O2 (stereo not drawn),inactive,inactive,0.4 µM,,,
2.9 µM,> 200 µM,> 200 µM,2.9 µM,1.5 µM,CC(C)=CCC/C(C)=C/CC/C(C)=C/Cc1cc(O)cc2c1OC(/C=C(\C)CC/C=C(\C)CCC=C(C)C)C1=C2C(=O)C2=C(NCCS2(=O)=O)C1=O (stereo not drawn),inactive,inactive,16.7 µM,,,
5.2 µM,> 200 µM,> 200 µM,7.4 µM,4.7 µM,CC(C)=CCC/C(C)=C/CC/C(C)=C/Cc1cc2c(cc1O)C1=C(C(=O)C3=C(C1=O)S(=O)(=O)CCN3)C(/C=C(\C)CC/C=C(\C)CCC=C(C)C)O2 (stereo not drawn),inactive,inactive,126 µM,,,17
1 µM,> 200 µM,> 200 µM,3.4 µM,0.45 µM,CC(C)=CCC/C(C)=C/CC/C(C)=C/Cc1cc2c(cc1O)C1=C(C(=O)C3=C(NCCS3(=O)=O)C1=O)C(/C=C(\C)CC/C=C(\C)CCC=C(C)C)O2 (stereo not drawn),inactive,inactive,25.8 µM,,,
0.01 µM,,,,,CSCC[C@H](NC(=O)c1ccc(NC[C@@H](N)CS)cc1-c1ccccc1)C(=O)O,,,,,,

# Continued, compound first:
SMILES,IC50 [1],MIC [2],MIC (Staphylococcus aureus),IC50 (Plasmodium falciparum [3]),IC50 [4],Activity (Escherichia coli),Activity (Pseudomonas aeruginosa),IC50 (L6; read-out: IC50),IC50 (L6),IC50 (Plasmodium falciparum [5]),selectivity ratio [6]
CC(C)=CCc1cc(O)cc2c1OC(C=C(C)C)C1=C2C(=O)C2=C(C1=O)S(=O)(=O)CCN2 (stereo not drawn),> 22 µM,> 200 µM,> 200 µM,8 µM,17.3 µM,inactive,inactive,12.8 µM,,,
COc1cc([C@@H]2c3cc4c(cc3[C@H](O)[C@H]3COC(=O)[C@H]23)OCO4)cc(OC)c1OC [PODOFILOX],,,,,,,,,0.012 µM,,
CC(C)=CCC/C(C)=C/Cc1cc2c(cc1O)C1=C(C(=O)C3=C(NCCS3(=O)=O)C1=O)C(/C=C(\C)CCC=C(C)C)O2 (stereo not drawn),3.04 µM,> 200 µM,> 200 µM,,1.22 µM,inactive,inactive,,,> 17 µM,
CC(C)=CCc1cc2c(cc1O)C1=C(C(=O)C3=C(NCCS3(=O)=O)C1=O)C(C=C(C)C)O2 (stereo not drawn),> 22 µM,> 200 µM,> 200 µM,4.8 µM,> 22 µM,inactive,inactive,5.2 µM,,,
CC(C)=CCC/C(C)=C/Cc1cc2c(cc1O)C1=C(C(=O)C3=C(C1=O)S(=O)(=O)CCN3)C(/C=C(\C)CCC=C(C)C)O2 (stereo not drawn),0.098 µM,> 200 µM,> 200 µM,,0.054 µM,inactive,inactive,,,4.39 µM,
CC(C)=CCC/C(C)=C/Cc1cc(O)cc2c1OC(/C=C(\C)CCC=C(C)C)C1=C2C(=O)C2=C(NCCS2(=O)=O)C1=O (stereo not drawn),0.22 µM,> 200 µM,> 200 µM,,0.14 µM,inactive,inactive,,,4.56 µM,
CC(C)=CCC/C(C)=C/Cc1cc(O)cc2c1OC(/C=C(\C)CCC=C(C)C)C1=C2C(=O)C2=C(C1=O)S(=O)(=O)CCN2 (stereo not drawn),0.74 µM,> 200 µM,> 200 µM,,0.78 µM,inactive,inactive,,,> 17 µM,
O=C(N[C@H](CO)[C@H](O)c1ccc([N+](=O)[O-])cc1)C(Cl)Cl [CHLORAMPHENICOL],,3 to 6 µM,1.5 to 3 µM,,,,,,,,
CC(C)=CCc1cc(O)cc2c1OC(C=C(C)C)C1=C2C(=O)C2=C(NCCS2(=O)=O)C1=O (stereo not drawn),19.6 µM,> 200 µM,> 200 µM,2 µM,14.7 µM,inactive,inactive,4.2 µM,,,
CC(C)=CCC/C(C)=C/CC/C(C)=C/C1Oc2ccc(O)cc2C2=C1C(=O)C=CC2=O (stereo not drawn),3.3 µM,3.12 µM,6.25 µM,7.2 µM,1.7 µM,inactive,inactive,23.5 µM,,,
CC(C)=CCC/C(C)=C/CC/C(C)=C/C1Oc2c(cc(O)c3c2-c2cc(O)ccc2OC3/C=C(\C)CC/C=C(\C)CCC=C(C)C)C2=C1C(=O)C=CC2=O (stereo not drawn),1.6 µM,> 200 µM,> 200 µM,33.9 µM,1 µM,inactive,inactive,53.2 µM,,,
CN[C@@H]1[C@H](O[C@H]2[C@H](O[C@H]3[C@H](O)[C@@H](O)[C@H](N=C(N)N)[C@@H](O)[C@@H]3N=C(N)N)O[C@@H](C)[C@]2(O)C=O)O[C@@H](CO)[C@H](O)[C@H]1O [STREPTOMYCIN],,10.7 µM,21.5 µM,,,,,,,,
CC(C)=CCC/C(C)=C/CC/C(C)=C/Cc1cc(O)cc2c1OC(/C=C(\C)CC/C=C(\C)CCC=C(C)C)C1=C2C(=O)C2=C(C1=O)S(=O)(=O)CCN2 (stereo not drawn),0.35 µM,> 200 µM,> 200 µM,4 µM,0.17 µM,inactive,inactive,30.6 µM,,,
